US9512107B2, “Therapeutically active compositions and their methods of use” (Agios Pharmaceuticals, Inc., priority 2012, dated 2016)
Changes are numbered by the printed parent chain. Like-named read-outs stand apart in the source and are kept apart here.

Tests used:
[1] = tested on: U87MG pLVX-IDH2 R140Q-neo cells; experiment: U87MG pLVX-IDH2 R140Q-neo cell based assay, 2-HG in media by LC-MS at 48 hours
Summary of the method: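 U87MG cells stably expressing IDH2 R140Q were seeded overnight, then exposed to compound at 0.2% final DMSO at 37 °C, 5% CO2. 2-HG in the medium was quantified by LC-MS at 48 h. Growth inhibition was read by CellTiter-Glo luminescence at 72 h.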

IDH2 R172K = molecular target: T1, IDH2 R172K (Homo sapiens, UniProt P48735, R172K); experiment: IDH2 R172K enzymatic assay (NADPH cofactor depletion, diaphorase/resazurin readout); type: biochemical; details: read-out: Enz R172K
T1 sequence (P48735 40-452 R172K): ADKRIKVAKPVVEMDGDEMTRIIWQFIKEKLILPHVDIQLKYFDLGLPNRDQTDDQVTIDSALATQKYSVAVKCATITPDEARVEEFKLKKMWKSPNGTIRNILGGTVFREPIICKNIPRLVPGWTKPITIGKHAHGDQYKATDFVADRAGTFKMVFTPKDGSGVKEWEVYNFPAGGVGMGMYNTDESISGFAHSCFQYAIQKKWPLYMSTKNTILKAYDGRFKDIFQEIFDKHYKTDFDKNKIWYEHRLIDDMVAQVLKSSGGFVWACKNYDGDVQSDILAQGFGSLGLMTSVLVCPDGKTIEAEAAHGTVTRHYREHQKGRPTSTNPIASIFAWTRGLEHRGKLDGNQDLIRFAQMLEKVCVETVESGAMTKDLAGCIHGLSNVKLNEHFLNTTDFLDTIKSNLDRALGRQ
Summary of the method: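 Test compounds are incubated with the mutant enzyme for one hour at ambient temperature. A substrate mix of 50 μM NADPH plus 6.3 mM α-KG initiates turnover, which proceeds for one hour. Diaphorase and resazurin then halt the reaction by depleting the cofactor and convert the remaining NADPH into a fluorescent signal.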

IDH2 R140Q = molecular target: T2, IDH2 R140Q (Homo sapiens, UniProt P48735, R140Q); experiment: IDH2 R140Q enzymatic assay (cofactor depletion, similar format); type: biochemical; details: read-out: Enz R140Q
T2 sequence (P48735 40-452 R140Q): T1 sequence (P48735 40-452 R172K) with R101Q, K133R

Row | IC50 ([1]; Homo sapiens, U-87 MG) | IC50 (IDH2 R172K) | IC50 (IDH2 R140Q) | IC50 [1] | SMILES
1 | < 0.1 µM | < 0.1 µM | 0.1 to 1 µM | – | CC1(Nc2nc(Nc3ccnc(C4CC4)c3)nc(-c3cccc(C(F)(F)F)n3)n2)CC1 [Compound 565, N-(2-Cyclopropyl-pyridin-4-yl)-N′-(1-methyl-cyclopropyl)-6-(6-trifluoromethyl-pyridin-2-yl)-[1,3,5]triazine-2,4-diamine]
2 | 0.1 to 1 µM | 0.1 to 1 µM | < 0.1 µM | – | CCC(=O)Nc1nc(Nc2ccccc2)nc(-c2ccccc2)n1 [Compound 209, N-(4-phenyl-6-(phenylamino)-1,3,5-triazin-2-yl)propionamide]
3 | < 0.1 µM | 0.1 to 1 µM | < 0.1 µM | – | CC(C)Nc1nc(Nc2ccc(F)nc2)nc(-c2ccccc2)n1 [Compound 196, N^2-(6-fluoropyridin-3-yl)-N^4-isopropyl-6-phenyl-1,3,5-triazine-2,4-diamine]
4 | 0.1 to 1 µM | 0.1 to 1 µM | 0.1 to 1 µM | – | Fc1ccc(Nc2nc(NC3CCC3)nc(-c3ccccn3)n2)cn1 [Compound 345, N^2-cyclobutyl-N^4-(6-fluoropyridin-3-yl)-6-(pyridin-2-yl)-1,3,5-triazine-2,4-diamine]
5 | 0.1 to 1 µM | 0.1 to 1 µM | < 0.1 µM | – | CC(C)Nc1nc(Nc2ccccc2)nc(-c2cccc(Cl)c2)n1 [Compound 158]
6 | < 0.1 µM | < 0.1 µM | 0.1 to 1 µM | – | CC(C)(C)Nc1nc(Nc2ccnc(C3(C#N)CC3)c2)nc(-c2cccc(C(F)(F)F)n2)n1 [Compound 608, 1-(4-((4-(tert-butylamino)-6-(6-(trifluoromethyl)pyridin-2-yl)-1,3,5-triazin-2-yl)amino)pyridin-2-yl)cyclopropanecarbonitrile]
7 | < 0.1 µM | 0.1 to 1 µM | 0.1 to 1 µM | – | Fc1cncc(Nc2nc(NC3C4COCC43)nc(-c3cccc(Cl)n3)n2)c1 (stereo not drawn) [Compound 511, 6-(6-Chloro-pyridin-2-yl)-N-(5-fluoro-pyridin-3-yl)-N′-(3-oxa-bicyclo[3.1.0]hex-6-yl)-[1,3,5]triazine-2,4-diamine]
8 | 0.1 to 1 µM | 0.1 to 1 µM | < 0.1 µM | – | CCCNc1nc(Nc2ccncc2)nc(-c2ccccc2)n1 [Compound 249, 6-phenyl-N^2-propyl-N^4-(pyridin-4-yl)-1,3,5-triazine-2,4-diamine]
9 | < 0.1 µM | 0.1 to 1 µM | 0.1 to 1 µM | – | OC1(CNc2nc(Nc3cc(F)cc(F)c3)nc(-c3cccc(C(F)(F)F)n3)n2)CC1 [Compound 541, 1-{[4-(3,5-Difluoro-phenylamino)-6-(6-trifluoromethyl-pyridin-2-yl)-[1,3,5]triazin-2-ylamino]-methyl}-cyclopropanol]
10 | < 0.1 µM | 0.1 to 1 µM | < 0.1 µM | – | CC(C)C(=O)Nc1nc(Nc2ccccc2)nc(-c2ccccc2)n1 [Compound 167]
11 | < 0.1 µM | 0.1 to 1 µM | < 0.1 µM | – | CC(C)CNc1nc(Nc2ccncc2)nc(-c2ccccc2)n1 [Compound 190, N^2-isobutyl-6-phenyl-N^4-(pyridin-4-yl)-1,3,5-triazine-2,4-diamine]
12 | < 0.1 µM | 0.1 to 1 µM | 0.1 to 1 µM | – | CC(C)Nc1nc(Nc2cc(F)cc(F)c2)nc(-c2nccc(N)n2)n1 [Compound 458, 6-(4-Amino-pyrimidin-2-yl)-N-(3,5-difluoro-phenyl)-N′-isopropyl-[1,3,5]triazine-2,4-diamine]
13 | 1 to 10 µM | 1 to 10 µM | 0.1 to 1 µM | – | CC(C)Nc1nc(Nc2ccccc2)nc(-c2ccc(Cl)cc2)n1 [Compound 122]
14 | < 0.1 µM | 0.1 to 1 µM | 0.1 to 1 µM | – | Cn1cc(Nc2nc(Nc3ccnc(C(F)(F)F)c3)nc(-c3cccc(C(F)(F)F)n3)n2)cn1 [Compound 543, N-(1-Methyl-1H-pyrazol-4-yl)-6-(6-trifluoromethyl-pyridin-2-yl)-N′-(2-trifluoromethyl-pyridin-4-yl)-[1,3,5]triazine-2,4-diamine]
15 | < 0.1 µM | 0.1 to 1 µM | 0.1 to 1 µM | – | Nc1ccnc(-c2nc(NCC(F)(F)F)nc(Nc3cc(F)cc(F)c3)n2)n1 [Compound 480, 6-(4-Amino-pyrimidin-2-yl)-N-(3,5-difluoro-phenyl)-N′-(2,2,2-trifluoro-ethyl)-[1,3,5]triazine-2,4-diamine]
16 | < 0.1 µM | < 0.1 µM | 0.1 to 1 µM | – | CC(C)Nc1nc(Nc2ccnc(C3(C)CC3)c2)nc(-c2cccc(C(F)(F)F)n2)n1 [Compound 581, N-Isopropyl-N′-[2-(1-methyl-cyclopropyl)-pyridin-4-yl]-6-(6-trifluoromethyl-pyridin-2-yl)-[1,3,5]triazine-2,4-diamine]
17 | < 0.1 µM | < 0.1 µM | 0.1 to 1 µM | – | CC1(CNc2nc(Nc3ccnc(C(F)(F)F)c3)nc(-c3cccc(C(F)(F)F)n3)n2)COC1 [Compound 550, N-(3-Methyl-oxetan-3-ylmethyl)-6-(6-trifluoromethyl-pyridin-2-yl)-N′-(2-trifluoromethyl-pyridin-4-yl)-[1,3,5]triazine-2,4-diamine]
18 | < 0.1 µM | < 0.1 µM | < 0.1 µM | – | CC(C)Nc1nc(Nc2cncc(F)c2)nc(-c2ccccc2F)n1 [Compound 374, 6-(2-fluorophenyl)-N^2-(5-fluoropyridin-3-yl)-N^4-isopropyl-1,3,5-triazine-2,4-diamine]
19 | < 0.1 µM | < 0.1 µM | 0.1 to 1 µM | – | CC(C)(C)Nc1nc(Nc2cc(Cl)cc(S(C)(=O)=O)c2)nc(-c2cccc(C(F)(F)F)n2)n1 [Compound 600, N2-(tert-butyl)-N4-(3-chloro-5-(methylsulfonyl)phenyl)-6-(6-(trifluoromethyl)pyridin-2-yl)-1,3,5-triazine-2,4-diamine]
20 | < 0.1 µM | 0.1 to 1 µM | < 0.1 µM | – | CCOC(=O)Nc1nc(Nc2ccccc2)nc(-c2ccccc2)n1 [Compound 181, ethyl 4-phenyl-6-(phenylamino)-1,3,5-triazin-2-ylcarbamate]
21 | < 0.1 µM | < 0.1 µM | < 0.1 µM | – | CC(C)Nc1nc(Nc2cccc(F)c2)nc(-c2ccccc2)n1 [Compound 178, N-(3-Fluoro-phenyl)-N′-isopropyl-6-phenyl-[1,3,5]triazine-2,4-diamine]
22 | – | 0.1 to 1 µM | 0.1 to 1 µM | 0.1 to 1 µM | OC1CC1Nc1nc(Nc2ccnc(C(F)(F)F)c2)nc(-c2cccc(C(F)(F)F)n2)n1 (stereo not drawn) [Compound 569, 2-[4-(6-Trifluoromethyl-pyridin-2-yl)-6-(2-trifluoromethyl-pyridin-4-ylamino)-[1,3,5]triazin-2-ylamino]-cyclopropanol]
23 | < 0.1 µM | < 0.1 µM | 0.1 to 1 µM | – | CC(C)(C)Nc1nc(Nc2ccnc(C3(C#N)CC3)c2)nc(-c2cccc(C(C)(F)F)n2)n1 [Compound 606, 1-(4-((4-(tert-butylamino)-6-(6-(1,1-difluoroethyl)pyridin-2-yl)-1,3,5-triazin-2-yl)amino)pyridin-2-yl)cyclopropanecarbonitrile]
24 | < 0.1 µM | 0.1 to 1 µM | 0.1 to 1 µM | – | CC(C)(O)CNc1nc(Nc2ccnc(C(F)(F)F)c2)nc(-c2cccc(C(C)(F)F)n2)n1 [Compound 594, 1-((4-(6-(1,1-difluoroethyl)pyridin-2-yl)-6-((2-(trifluoromethyl)pyridin-4-yl)amino)-1,3,5-triazin-2-yl)amino)-2-methylpropan-2-ol]
25 | 0.1 to 1 µM | 0.1 to 1 µM | < 0.1 µM | – | c1ccc(Nc2nc(NC3CCCOC3)nc(-c3ccccc3)n2)cc1 (stereo not drawn) [Compound 268, N^2,6-diphenyl-N^4-(tetrahydro-2H-pyran-3-yl)-1,3,5-triazine-2,4-diamine]
26 | < 0.1 µM | 0.1 to 1 µM | 0.1 to 1 µM | – | COc1cccc(-c2nc(Nc3ccnc(C(F)(F)F)c3)nc(NC3COC3)n2)c1F [Compound 624, 6-(2-Fluoro-3-methoxy-phenyl)-N-oxetan-3-yl-N′-(2-trifluoromethyl-pyridin-4-yl)-[1,3,5]triazine-2,4-diamine]
27 | < 0.1 µM | < 0.1 µM | 0.1 to 1 µM | – | CC(C)Nc1nc(Nc2ccnc(C(F)(F)F)c2)nc(-c2cccc(C(F)(F)F)n2)n1 [Compound 335, N^2-isopropyl-6-(6-(trifluoromethyl)pyridin-2-yl)-N^4-(2-(trifluoromethyl)pyridin-4-yl)-1,3,5-triazine-2,4-diamine]
